The values below come from patent US20220226508A1, “METHODS AND COMPOSITIONS FOR TREATING EPILEPSY” (THE REGENTS OF THE UNIVERSITY OF CALIFORNIA, priority 2019, published 2022).

“Also recorded” adds a separate entry of the source. Like-named read-outs stand apart in the source and are kept apart here.

One assay concerns scn1lab mutant zebrafish. In words: Locomotion assay of high-velocity seizure-like swim behavior. Format: in vivo, zebrafish (Danio rerio). Conditions: for effect on seizure-like swim behavior (change in mean velocity): commercial 5-HT2BR/dopamine agonists, three concentrations; for effect on seizure-like swim behavior (change in mean velocity) / suppression of seizure-like swim behavior (change in mean velocity): 30 and 90 min exposure, threshold ≥40%; for suppression of seizure-like swim behavior (change in mean velocity): independently resynthesized compounds retested at 10, 50, 100 and 250 μM; for suppression of seizure-like swim behavior (change in mean swim velocity): initial library screen at 100 μM and 250 μM, 5 dpf larvae, threshold reduction ≥40%. The source says:
Zebrafish maintenance. Zebrafish were raised under standard laboratory conditions in accordance with requirements outlined in the Guide for the Care and Use of Animals (ebrary Inc., 2011) and experiments were approved by the Institutional Animal Care and Use Committee (protocol #AN108659-03). Embryos were obtained by natural spawning of scn1lab (didy^s552) heterozygous animals that had been outcrossed to TL strain. Homozygous scn1lab mutants (n=2500) have dispersed melanosomes and appear visibly darker by 3 dpf compared to WT larvae.
Seizure monitoring. At 5 dpf individual zebrafish larvae were placed into a single well of a clear flat-bottomed 96-well microplate containing embryo media. Larvae were selected randomly as sex determination is not possible at this stage of development. All drug screening experiments were conducted in an unbiased manner by investigators blinded to the test compounds and all files coded for post hoc analysis. Microplates were placed inside the DanioVision and acclimated for 20 min at room temperature. Locomotion plots were obtained for each well at a recording epoch of 10 min using EthoVision XT software (DanioVision, Noldus Information Technology). Seizure scoring was performed using the following three-stage scale established for pentylenetetrazole-induced seizures: Stage 0, no or very little swim activity; Stage I, increased, brief bouts of swim activity; Stage II, rapid “whirlpool-like” circling swim behavior; and Stage III, paroxysmal whole-body clonus-like convulsions, and a brief loss of posture. WT fish are typically scored at Stage 0 or I. Plots were analyzed for distance travelled (in millimeters) and mean velocity (in millimeters per second). After 90 mins of drug exposure larvae were examined for toxic side-effects. Compounds that decreased or stopped the larva heartbeat, or reduced or eliminated the escape response when touched, were considered toxic.
Statistics. Data are presented as the mean±standard error of the mean (SEM), unless otherwise stated. For behavior analysis, the threshold for a change in mean swim velocity ≥40% (>1.5×SD of 250 control treated scn1lab) is considered significant. For comparison between more than two groups one-way ANOVA analysis was used. […] Differences considered statistically significant are indicated with asterisks (*P<0.05; **P<0.01).

The target in assay [1] is T1, human 5-HT2AR (Homo sapiens, UniProt P28223).
T1 construct: expressed in transfected cells
Conditions: read-out: binding affinity (Ki) 5-HT2A / 5-HT2AR, cited from earlier work.

In assay [2] the target is T2, human 5-HT2BR (Homo sapiens, UniProt P41595).
T2 construct: expressed in transfected cells

In assay [3] the target is T3, human 5-HT2CR (Homo sapiens, UniProt P28335).
T3 construct: expressed in transfected cells
T3 sequence (P28335 33-458): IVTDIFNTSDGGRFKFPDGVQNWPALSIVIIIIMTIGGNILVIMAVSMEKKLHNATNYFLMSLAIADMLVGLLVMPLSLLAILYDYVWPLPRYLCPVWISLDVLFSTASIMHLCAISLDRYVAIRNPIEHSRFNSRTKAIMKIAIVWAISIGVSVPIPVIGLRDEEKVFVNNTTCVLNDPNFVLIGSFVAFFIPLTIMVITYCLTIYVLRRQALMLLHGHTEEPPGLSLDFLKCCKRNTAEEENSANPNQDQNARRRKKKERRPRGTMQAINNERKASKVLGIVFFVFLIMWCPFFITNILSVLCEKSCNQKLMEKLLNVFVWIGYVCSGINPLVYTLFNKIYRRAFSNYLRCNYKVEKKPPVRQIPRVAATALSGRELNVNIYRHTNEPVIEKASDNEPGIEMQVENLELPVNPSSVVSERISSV

For assay [4], the target named is T1, human 5-HT2AR. In words: biochemical. Format: binding. Conditions: read-out: binding affinity (Ki) 5-HT2AR. The protocol:
(§1) Receptor Binding Assays. In vitro binding assay and Ki data were performed by the US National Institute of Mental Health Psychoactive Drug Screening Program (NIMH PDSP). Drugs were screened against recombinant, stably expressed human 5-HT2AR, 5-HT2BR, 5-HT2CR and H1. For specific binding assays please refer to detailed procedures at https://pdspdb.unc.edu/pdspWeb/ (Besnard, J. et al., Nature, 492, 215-220, 2012).

Assay [5] has as its target T2, human 5-HT2BR. In words: biochemical. The class given is binding. Conditions: for Ki: read-out: binding affinity (Ki) 5-HT2BR; for specificity / selectivity for 5-HT2BR over other 5-HT2R subtypes: radioligand binding. The protocol:
as §1

The target in assay [6] is T3, human 5-HT2CR. In words: Radioligand binding assay (NIMH PDSP), 5-HT2CR. Conditions: read-out: binding affinity (Ki) 5-HT2CR. As to the method: as §1
The target in a further assay is human H1 receptor (Homo sapiens, UniProt P35367). In words: Radioligand binding assay (NIMH PDSP), H1. More on the design: expressed in transfected cells. Conditions: read-out: binding affinity (Ki) H1. The protocol: as §1
Where [7] appears, read: known drugs and commercial compounds.
Where [8] appears, read: known drugs and commercial compounds; read-out: binding affinity (Ki) 5-HT2B / 5-HT2BR; cited from earlier work.
[9] abbreviates: known drugs and commercial compounds; read-out: binding affinity (Ki) 5-HT2C / 5-HT2CR; cited from earlier work.
[10] abbreviates: clemizole analogs, recombinant human receptor.

T1 sequence (P28223 whole entry): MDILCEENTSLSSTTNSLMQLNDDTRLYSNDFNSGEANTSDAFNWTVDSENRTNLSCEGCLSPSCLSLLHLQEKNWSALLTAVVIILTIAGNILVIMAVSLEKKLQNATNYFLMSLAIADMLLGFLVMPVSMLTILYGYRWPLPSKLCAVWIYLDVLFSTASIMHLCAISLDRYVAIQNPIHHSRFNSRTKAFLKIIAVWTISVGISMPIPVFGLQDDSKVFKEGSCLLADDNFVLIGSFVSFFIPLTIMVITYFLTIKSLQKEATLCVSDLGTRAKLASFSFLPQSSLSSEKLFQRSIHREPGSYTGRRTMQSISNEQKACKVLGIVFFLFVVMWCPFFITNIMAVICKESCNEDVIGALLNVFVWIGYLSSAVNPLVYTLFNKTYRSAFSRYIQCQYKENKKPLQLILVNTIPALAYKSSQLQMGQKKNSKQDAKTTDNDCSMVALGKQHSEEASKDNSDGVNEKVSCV
human H1 receptor, sequence (P35367 whole entry): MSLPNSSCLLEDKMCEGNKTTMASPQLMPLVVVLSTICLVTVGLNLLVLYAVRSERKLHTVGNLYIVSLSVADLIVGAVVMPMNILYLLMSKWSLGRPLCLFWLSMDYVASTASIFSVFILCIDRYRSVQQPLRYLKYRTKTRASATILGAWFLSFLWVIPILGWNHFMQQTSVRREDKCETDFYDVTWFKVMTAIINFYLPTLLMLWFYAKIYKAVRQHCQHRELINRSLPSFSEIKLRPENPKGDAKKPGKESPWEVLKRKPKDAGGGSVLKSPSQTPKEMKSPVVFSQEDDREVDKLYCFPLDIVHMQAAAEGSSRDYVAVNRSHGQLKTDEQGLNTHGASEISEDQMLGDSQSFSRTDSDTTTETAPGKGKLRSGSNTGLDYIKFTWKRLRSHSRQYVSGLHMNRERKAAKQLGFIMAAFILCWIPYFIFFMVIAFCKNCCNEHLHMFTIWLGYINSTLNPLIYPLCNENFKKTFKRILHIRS
T2 sequence (P41595 whole entry): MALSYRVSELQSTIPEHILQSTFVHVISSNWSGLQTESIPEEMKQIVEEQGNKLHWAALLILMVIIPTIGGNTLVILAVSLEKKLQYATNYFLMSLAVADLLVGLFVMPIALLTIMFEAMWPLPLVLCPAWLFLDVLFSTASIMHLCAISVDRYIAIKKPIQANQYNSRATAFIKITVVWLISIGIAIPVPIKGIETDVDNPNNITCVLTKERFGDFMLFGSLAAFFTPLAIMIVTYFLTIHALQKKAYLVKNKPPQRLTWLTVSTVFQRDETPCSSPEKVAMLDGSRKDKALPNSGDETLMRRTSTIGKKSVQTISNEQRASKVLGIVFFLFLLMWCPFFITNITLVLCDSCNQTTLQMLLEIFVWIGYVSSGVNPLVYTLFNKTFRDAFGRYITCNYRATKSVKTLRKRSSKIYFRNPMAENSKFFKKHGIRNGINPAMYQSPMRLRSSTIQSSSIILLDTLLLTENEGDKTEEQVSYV

Turning to `CC(N)Cc1c[nH]c2ccc(OCc3cccs3)cc12` (centres unmarked) [BW-723C86, reference compound], the “effect on seizure-like swim behavior (change in mean velocity)” value (shortened to “effect … (change in mean velocity)”) in the assay with scn1lab mutant zebrafish is “showed a decrease in seizure-like swim behavior, but also failed to reach our significance threshold”.

Regarding `Clc1cccc(COc2cncc(N3CCNCC3)n2)c1` [CP-809,101], in the assay with scn1lab mutant zebrafish, the “effect … (change in mean velocity)” value is reported as “biphasic response”. Further, the values for the Ki on human 5-HT2AR [1] (setting [7]), at human 5-HT2BR [2] (setting [8]) and at human 5-HT2CR [3] (setting [9]) were 1.6 nM, 6 nM and 64 nM, respectively.

On to `Clc1ccc(Cn2c(CC3CCCC3)nc3ccccc32)cc1` [Compound 1, 1-[(4-Chlorophenyl)methyl]-2-(cyclopentylmethyl)-1H-benzimidazole], for which the Ki on human 5-HT2AR [4] was above 10000 nM; on human 5-HT2BR [5] (setting [10]) it was 501 nM; on human 5-HT2CR [6] (setting [10]) it was 2730 nM.

For `c1ccc(Cn2c(CN3CCCC3)nc3ccccc32)cc1` [Compound 3], the Ki at human 5-HT2AR [4] was determined as 327 nM; at human 5-HT2BR [5], 83 nM; on human 5-HT2CR [6] it was 292 nM; on human H1 receptor it was 4.8 nM.

Turning to `CCCn1c(CN2CCCC2)nc2ccccc21` [Compound 5], the Ki on human 5-HT2AR [4] was above 10000 nM; at human 5-HT2BR [5], 219 nM; at human 5-HT2CR [6], above 10000 nM; on human H1 receptor, 362 nM. Moreover, the “specificity / selectivity for 5-HT2BR over other 5-HT2R subtypes” value at human 5-HT2BR [5] is recorded as “specific binding for 5HT2BR; also recorded: selectivity for 5-HT2BR”. The “suppression of seizure-like swim behavior (change in mean velocity)” value in the assay on scn1lab mutant zebrafish is “no significant effect on the high-speed seizure-like behavior; also recorded: no significant effect on the swim behavior”. Besides, in the assay with scn1lab mutant zebrafish, the “suppression of seizure-like swim behavior (change in mean swim velocity)” value is “no significant effect on swim behavior”.

Consider `Fc1ccc(Cn2c(CN3CCCC3)nc3ccccc32)cc1` [Compound 7], for which the Ki on human 5-HT2AR [4] amounted to 15 nM; on human 5-HT2BR [5], 46 nM; at human 5-HT2CR [6], 345 nM; at human H1 receptor it was 1 nM.

Regarding `Clc1ccc(Cn2c(CN3CCCC3)cc3ccccc32)cc1` [Compound 11, 1-[(4-Chlorophenyl)methyl]-2-[(pyrrolidin-1-yl)methyl]-1H-indole], the Ki on human 5-HT2AR [4] (setting [10]) turned out to be 631 nM; on human 5-HT2BR [5] (setting [10]), 134 nM; at human 5-HT2CR [6] (setting [10]), 248 nM; on human H1 receptor (setting [10]), 6.4 nM.

Regarding `Nc1ccc(Cn2c(CN3CCCC3)nc3ccccc32)cc1` [Compound 14], the Ki is above 10000 nM at human 5-HT2AR [4], 606 nM on human 5-HT2BR [5], above 10000 nM on human 5-HT2CR [6] and 27 nM at human H1 receptor. Further, the “specificity / selectivity for 5-HT2BR over other 5-HT2R subtypes” value on human 5-HT2BR [5] was “specific binding for 5HT2BR; also recorded: selectivity for 5-HT2BR”. Further, in the assay with scn1lab mutant zebrafish, the “suppression of seizure-like swim behavior (change in mean velocity)” value is “no significant effect on the high-speed seizure-like behavior; also recorded: no significant effect on the swim behavior”. The “suppression of seizure-like swim behavior (change in mean swim velocity)” value with scn1lab mutant zebrafish is recorded as “no significant effect on swim behavior”.

On to `Clc1ccc(Cn2c(CN3CCCCC3)nc3ccccc32)cc1` [Compound 22], for which the Ki at human 5-HT2AR [4] was determined as 623 nM; on human 5-HT2BR [5] it was 306 nM; at human 5-HT2CR [6], 4580 nM; at human H1 receptor it was 8.5 nM.

Take `CCN(CC)Cc1nc2ccccc2n1Cc1ccc(Cl)cc1` [Compound 24, ({1-[(4-Chlorophenyl)methyl]-1H-1,3-benzodiazol-2-yl}methyl)diethylamine]: the Ki on human 5-HT2AR [4] (setting [10]) was 1260 nM; on human 5-HT2BR [5] (setting [10]) it was 115 nM; on human 5-HT2CR [6] (setting [10]), 1410 nM; at human H1 receptor (setting [10]) it was 3.7 nM.

With `CN1CCN(Cc2nc3ccccc3n2Cc2ccc(Cl)cc2)CC1` [Compound 26], the Ki at human 5-HT2AR [4] worked out at 316 nM; at human 5-HT2BR [5], 20 nM; at human 5-HT2CR [6], 313 nM; at human H1 receptor, 1.2 nM.

Consider `Clc1ccc(Cn2c(CN3CCSC3)nc3ccccc32)cc1` [Compound 28], for which the Ki was above 10000 nM at human 5-HT2AR [4], 464 nM on human 5-HT2BR [5], 1080 nM at human 5-HT2CR [6] and 44 nM at human H1 receptor.

On to `C[C@H](N)Cn1ccc2cc(F)c(Cl)cc21` [Ro 60-0175], for which, in the assay on scn1lab mutant zebrafish, the “effect … (change in mean velocity)” value was “consistently decreased mean velocity and was borderline effective after 90 mins of drug exposure”. Besides, the Ki at human 5-HT2AR [1] is 37.2 nM; at human 5-HT2BR [2] (setting [8]), 4.3 nM; at human 5-HT2CR [3] (setting [9]) it was 9.1 nM.

As to `CN(C)C1CCc2cc(O)c(O)cc2C1` (centres unmarked) [TL-99], the “effect … (change in mean velocity)” value in the assay on scn1lab mutant zebrafish is “failed to elicit any behavioral effect”. Further, the Ki is 2340 nM on human 5-HT2AR [1] (setting [7]), 2040 nM at human 5-HT2BR [2] (setting [8]) and 2290 nM at human 5-HT2CR [3] (setting [9]).

Take `CN1CCc2cccc3c2[C@H]1Cc1ccc(O)c(O)c1-3` [apomorphine, reference compound]: the “effect … (change in mean velocity)” value with scn1lab mutant zebrafish is recorded as “significantly increased mean swim velocity”.

Regarding `C=CCN1C[C@H](C(=O)N(CCCN(C)C)C(=O)NCC)C[C@@H]2c3cccc4[nH]cc(c34)C[C@H]21` [cabergoline], the “effect on convulsive swim behavior” value in the assay on scn1lab mutant zebrafish (250 μM) is recorded as “significantly reduced convulsive swim-behavior”. In addition, the Ki at human 5-HT2AR [1] (setting [7]) was 6.17 nM; at human 5-HT2BR [2] (setting [8]), 1.2 nM; on human 5-HT2CR [3] (setting [9]), 692 nM.

Consider `Cl.Clc1cccc(N2CCNCC2)c1` [mCPP, 1-(3-Chlorophenyl)piperazine hydrochloride, reference compound], for which the “effect … (change in mean velocity)” value in the assay with scn1lab mutant zebrafish was “biphasic response”.

Turning to `CC(N)Cc1cccc(C(F)(F)F)c1` (centres unmarked) [norfenfluramine], the “effect … (change in mean velocity)” value in the assay on scn1lab mutant zebrafish is “suppressed convulsive swim behaviors in a concentration-dependent manner”. Also, the Ki is 194 nM on human 5-HT2AR [1]; 18 nM at human 5-HT2BR [2] (read-out: binding affinity (Ki) 5-HT2B / 5-HT2BR; known drugs and commercial compounds; cited from earlier work); 306 nM at human 5-HT2CR [3] (read-out: binding affinity (Ki) 5-HT2C / 5-HT2CR; known drugs and commercial compounds; cited from earlier work).
